We go through 19 molecules from ChEMBL document CHEMBL1129407, “Synthesis and evaluation of heterocyclic carboxamides as potential antipsychotic agents” (J Med Chem, 1996).

Assay [1] addresses T1, 5-hydroxytryptamine receptor 1A (Mus musculus, UniProt Q64264).
T1 sequence (Q64264 whole entry): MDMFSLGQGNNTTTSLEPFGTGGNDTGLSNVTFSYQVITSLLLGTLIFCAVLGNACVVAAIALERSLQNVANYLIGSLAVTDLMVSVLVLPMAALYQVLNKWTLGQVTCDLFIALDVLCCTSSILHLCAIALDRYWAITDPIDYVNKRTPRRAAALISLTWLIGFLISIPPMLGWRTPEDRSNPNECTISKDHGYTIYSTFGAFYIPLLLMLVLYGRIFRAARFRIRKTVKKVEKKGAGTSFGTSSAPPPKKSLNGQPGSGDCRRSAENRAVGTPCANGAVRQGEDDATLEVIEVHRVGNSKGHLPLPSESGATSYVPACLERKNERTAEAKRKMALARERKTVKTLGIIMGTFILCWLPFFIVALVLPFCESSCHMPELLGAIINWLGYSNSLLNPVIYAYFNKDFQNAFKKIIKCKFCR
As to the kind of experiment: Inhibitory activity against serotonin 5-hydroxytryptamine 1A receptor from mice.

Assay [2] addresses Serotonin 2 (5-HT2) receptor (Mus musculus, UniProt Q02152+P34968+P35363). As to the kind of experiment: Inhibitory activity against serotonin 5-hydroxytryptamine 2 receptor from mice. Format: protein assay.
For assay [3], the target named is T2, D(2) dopamine receptor (Mus musculus, UniProt P61168). As to the kind of experiment: Inhibitory activity against Dopamine receptor D2 from mice.
T2 sequence (P61168 whole entry): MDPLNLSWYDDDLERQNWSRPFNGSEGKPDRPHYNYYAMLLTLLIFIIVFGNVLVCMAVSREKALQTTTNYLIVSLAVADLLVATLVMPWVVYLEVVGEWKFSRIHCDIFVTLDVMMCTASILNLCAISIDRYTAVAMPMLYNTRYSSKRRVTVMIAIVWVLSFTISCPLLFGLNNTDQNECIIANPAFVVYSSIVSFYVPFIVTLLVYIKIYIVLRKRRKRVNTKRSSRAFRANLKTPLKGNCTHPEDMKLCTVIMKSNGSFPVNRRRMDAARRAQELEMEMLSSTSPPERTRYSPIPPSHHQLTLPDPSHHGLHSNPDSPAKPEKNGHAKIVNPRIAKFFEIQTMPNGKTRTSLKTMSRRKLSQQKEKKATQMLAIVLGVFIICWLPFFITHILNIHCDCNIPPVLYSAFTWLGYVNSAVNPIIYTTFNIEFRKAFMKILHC
Assay [4] has as its system Mus musculus. As to the kind of experiment: Compound was tested for antagonist activity against apomorphine-induced mouse climbing (ip). using in vivo method. Format: functional.
Assay [5] addresses T2, D(2) dopamine receptor. As to the kind of experiment: Inhibition of mouse Dopamine receptor D2.
For assay [6], the system named is Mus musculus. As to the kind of experiment: Compound was tested for antagonist activity against apomorphine-induced mouse climbing(intraperitoneally - ip). using in vivo method. In kind it is functional.
Assay [7] concerns Mus musculus. As to the kind of experiment: Compound was tested for antagonist activity against apomorphine-induced mouse climbing(per orally - po). using in vivo method. Format: functional.
Assay [8] has as its system Mus musculus. As to the kind of experiment: Compound was tested for antagonist activity against apomorphine-induced mouse climbing (po). using in vivo method. In kind it is functional.
For assay [9], the system named is Mus musculus. As to the kind of experiment: Compound was tested for antagonist activity against apomorphine-induced mouse climbing (po) using in vivo method. In kind it is functional.
Assay [10] relates to Mus musculus. As to the kind of experiment: Compound was tested for antagonist activity against apomorphine-induced mouse climbing (ip) using in vivo method. Format: functional.
For assay [11], the species on record is Mus musculus. As to the kind of experiment: Compound was tested for induction of catalepsy in mouse. Format: functional.
Assay [12] has as its system Mus musculus. As to the kind of experiment: Compound was tested for antagonist activity against apomorphine-induced mouse stereotypy (po) using in vivo method. In kind it is functional.
The nature of assay [13]: Ratio of ED50 for induction of catalepsy to ED50 for antagonism of apomorphine-induced climbing. Format: functional.
Assay [14] is described as follows: Ratio of ED50 for antagonism of apomorphine induced stereotypy to ED50 for antagonism of apomorphine-induced climbing. Format: functional.
For assay [15], the system named is Mus musculus. As to the kind of experiment: Compound was tested for antagonist activity against apomorphine-induced mouse stereotypy(per orally - po). using in vivo method. Format: functional.
The species entered for assay [16] is Mus musculus. As to the kind of experiment: Compound was tested for induction of catalepsy in mouse. In kind it is functional.

One may read the IC50 as the concentration at which inhibition is half-maximal. A low value points to greater potency in that assay. What is called ED50 is the dose at which the effect has come halfway, by size or by number of responders. As to `Nc1ccncc1C(=O)NCCCCN1CCN(c2nsc3ccccc23)CC1`, the figures for the 50% inhibitory concentration (IC50) in [1], in assay [2] and in [3] were 5.1 nM, 3.1 nM and 4.7 nM, respectively. For the same molecule, in [4], the ED50 is > 25 mg/kg.
Take `O=C(NCCCCN1CCN(c2nsc3ccccc23)CC1)c1cccc2c1NCCC2`: the half-maximal inhibitory concentration (IC50) in assay [1] amounted to 1.9 nM; in assay [2], 2.4 nM; in assay [5], 28 nM. For the same molecule, in assay [4], the 50% effective dose (ED50) was < 25 mg/kg.
`Nc1cccnc1C(=O)NCCCCN1CCN(c2nsc3ccccc23)CC1`: the IC50 came to 3.8 nM in assay [1] and 8.3 nM in assay [2].
For the molecule `O=C(NCCCCN1CCN(c2nsc3ccccc23)CC1)c1ccccn1`, the half-inhibitory concentration (IC50) in assay [1] is 2.8 nM; in assay [2], 1.5 nM; in [5], 24 nM. The 50% effective dose (ED50) is < 25 mg/kg in [6] and 16.6 mg/kg in assay [7].
For the molecule `Nc1ncccc1C(=O)NCCCCN1CCN(c2nsc3ccccc23)CC1`, the 50% inhibitory concentration (IC50) in [1] was 3.3 nM; in assay [2], 1.5 nM; in assay [5], 7.8 nM. Further, the values for the ED50 in [4] and in [8] were 6.4 mg/kg and 17.1 mg/kg, respectively.
For `O=C(NCCCCN1CCN(c2nsc3ccccc23)CC1)c1cccnc1`, in that order: 4.9 nM, 2.9 nM, 47 nM, 5.2 mg/kg and 15.5 mg/kg.
Turning to `O=C(NCCCCN1CCN(c2nsc3ccccc23)CC1)c1cccc2[nH]cnc12`, the values for the IC50 in [1], in assay [2] and in assay [3] were 4.2 nM, 0.29 nM and 7.6 nM, respectively. Further, the 50% effective dose (ED50) in assay [4] is > 25 mg/kg.
Take `O=C(NCCCCN1CCN(c2nsc3ccccc23)CC1)c1[nH]nc2ccccc12`: the IC50 stood at 3.6 nM in assay [1], 0.35 nM in [2] and 2.2 nM in [5]. In addition, the ED50 is < 25 mg/kg in assay [4] and 31.8 mg/kg in [8].
Turning to `O=C(NCCCCN1CCN(c2nsc3ccccc23)CC1)c1ccncc1`, the IC50 amounted to 6.6 nM in [1], 2.3 nM in assay [2] and 25 nM in [3]. Moreover, the median effective dose (ED50) in assay [9] was determined as 34 mg/kg; in assay [10], 4.6 mg/kg.
Consider `O=C(NCCCCN1CCN(c2nsc3ccccc23)CC1)c1cccc2cc[nH]c12`, for which the half-maximal inhibitory concentration (IC50) in assay [1] stood at 2.7 nM; in [2], 1.2 nM; in [5], 28 nM.
On to `Nc1cnccc1C(=O)NCCCCN1CCN(c2nsc3ccccc23)CC1`, for which the 50% inhibitory concentration (IC50) in assay [1] turned out to be 7 nM; in [2], 1.5 nM.
For `O=C(NCCCCN1CCN(c2nsc3ccccc23)CC1)c1cccc2c1NCC2`, the IC50 amounted to 4.3 nM in assay [1], 3.4 nM in [2] and 34 nM in assay [5]. The median effective dose (ED50) turned out to be 2.6 mg/kg in assay [4] and 18.6 mg/kg in [8].
In the case of `Nc1ccsc1C(=O)NCCCCN1CCN(c2nsc3ccccc23)CC1`, the values for the IC50 in [1], in assay [2] and in assay [5] were 1.3 nM, 1.3 nM and 9.6 nM, respectively. Further, the median effective dose (ED50) in [11] turned out to be 69.3 mg/kg; in [12], 57.9 mg/kg; in [4], 0.9 mg/kg; in [8], 9.7 mg/kg. Moreover, the Ratio in [13] was 7; in assay [14], 6.
For `O=C(NCCCCN1CCN(c2nsc3ccccc23)CC1)c1cccc2cccnc12`, the IC50 came out at 4.3 nM in assay [1], 2.4 nM in assay [2] and 14 nM in [3]. The ED50 in [4] was < 25 mg/kg; in [8], 54.4 mg/kg.
For `Nc1sccc1C(=O)NCCCCN1CCN(c2nsc3ccccc23)CC1`, in that order: 2 nM, 2.3 nM, 11 nM, 4.8 mg/kg and > 25 mg/kg.
Consider `Nc1c(C(=O)NCCCCN2CCN(c3nsc4ccccc34)CC2)sc2ccccc12`, for which the values for the IC50 in assay [1], in assay [2] and in assay [5] were 5.8 nM, 0.85 nM and 5.8 nM, respectively. Further, the ED50 in assay [4] was 2.2 mg/kg; in assay [8], 51.6 mg/kg.
As for `Cc1nc2n(c(=O)c1CCN1CCC(c3noc4cc(F)ccc34)CC1)CCCC2` [RISPERIDONE], the figures for the IC50 in assay [1] and in assay [5] were 430 nM and 23 nM, respectively. Also, the median effective dose (ED50) in [15] worked out at 3.2 mg/kg; in [16] it was 1.4 mg/kg; in assay [6], 0.3 mg/kg; in assay [7] it was 0.9 mg/kg.
`Nc1cscc1C(=O)NCCCCN1CCN(c2nsc3ccccc23)CC1`: the IC50 stood at 3.5 nM in assay [1], 2.5 nM in [2] and 6 nM in [5]. Moreover, the median effective dose (ED50) in [4] was 1.7 mg/kg; in assay [8] it was 12.6 mg/kg.
Take `O=C(NCCCCN1CCN(c2nsc3ccccc23)CC1)c1c[nH]c2ccccc12`: the IC50 in [1] came to 5.8 nM; in assay [2] it was 1.3 nM; in assay [3], 14 nM. The ED50 in assay [4] was > 25 mg/kg.
